Assay results from US20190031618A1, “BENZIMIDAZOLE DERIVATIVES USEFUL AS CB-1 INVERSE AGONISTS” (Janssen Pharmaceutica NV, priority 2015, published 2019).

What was measured:
[1] = target: Human CB2R (Cannabinoid receptor 2) (Homo sapiens, UniProt P34972); experiment: CB-2 in vitro cAMP (HTRF) assay; format: cell-based; conditions: HEK cells, cAMP HTRF, 250 nM forskolin; mean where tested more than once; read-out: CB2 HEK_cAMP EC50
Method in brief: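 Competitive HTRF read-out (d2-labelled cAMP vs cryptate antibody) quantifies cAMP in stably transfected HEK-293 cells, seeded the day before at 4E5 cells/mL. Stimulation buffer: HBSS, 5 mM HEPES, 0.1% BSA, 0.5 mM IBMX; forskolin prepared at 1.5 μM in buffer; compounds serially diluted 1/3 in DMSO.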

[2] = target: Human CB1R (Cannabinoid receptor 1) (Homo sapiens, UniProt P21554); experiment: CB-1 in vitro cAMP (HTRF) assay; format: cell-based; conditions: HEK cells, cAMP HTRF, 250 nM forskolin; mean where tested more than once; read-out: CB1 HEK_cAMP EC50
Method in brief: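 Intracellular cAMP from HTRF ratio (d2-cAMP vs Eu-cryptate anti-cAMP), converted to nM via per-plate standards, in stable human CB1R HEK-293 cells.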

Human CB1R (Cannabinoid receptor 1), sequence (P21554 whole entry): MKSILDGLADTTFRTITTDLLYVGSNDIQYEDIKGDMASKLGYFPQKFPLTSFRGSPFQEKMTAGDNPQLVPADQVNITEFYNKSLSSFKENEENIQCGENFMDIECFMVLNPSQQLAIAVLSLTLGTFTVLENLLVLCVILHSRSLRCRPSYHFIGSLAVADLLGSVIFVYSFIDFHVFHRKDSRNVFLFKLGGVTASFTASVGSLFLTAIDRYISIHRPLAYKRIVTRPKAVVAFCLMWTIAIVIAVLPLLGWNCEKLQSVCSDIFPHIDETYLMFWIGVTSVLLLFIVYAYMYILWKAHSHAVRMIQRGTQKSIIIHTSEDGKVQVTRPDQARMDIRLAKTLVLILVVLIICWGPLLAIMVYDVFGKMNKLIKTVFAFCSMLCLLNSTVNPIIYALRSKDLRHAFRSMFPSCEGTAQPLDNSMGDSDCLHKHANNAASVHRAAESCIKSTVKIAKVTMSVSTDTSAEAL
Human CB2R (Cannabinoid receptor 2), sequence (P34972 whole entry): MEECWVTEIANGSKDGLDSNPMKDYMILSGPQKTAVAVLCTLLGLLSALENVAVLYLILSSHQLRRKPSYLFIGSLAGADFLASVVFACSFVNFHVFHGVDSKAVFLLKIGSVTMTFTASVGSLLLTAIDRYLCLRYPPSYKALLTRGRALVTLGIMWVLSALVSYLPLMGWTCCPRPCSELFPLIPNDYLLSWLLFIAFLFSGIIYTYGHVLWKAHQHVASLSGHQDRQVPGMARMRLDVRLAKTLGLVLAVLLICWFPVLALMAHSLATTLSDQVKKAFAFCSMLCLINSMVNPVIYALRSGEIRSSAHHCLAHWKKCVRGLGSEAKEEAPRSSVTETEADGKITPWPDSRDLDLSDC

| Compound | EC50 [1] [nM] | EC50 [2] [nM] |
| --- | --- | --- |
| Oc1cccc(-n2c(C3CC3)nc3ccc(C(c4ccc(Cl)cc4)c4ccc(Cl)cc4)cc32)c1 [Example 180] | > 10000 | 17.1 |
| COc1cccc(-n2c(C3CC3)nc3ccc(C(c4ccc(Cl)cc4)c4ccc(Cl)cc4)cc32)c1 [Example 181] | > 10000 | 25 |
| NC(=O)COc1ccc(Cn2c(C3CC3)nc3ccc(C(c4ccc(Cl)cc4)c4ccc(Cl)cc4)cc32)cc1 [Example 182] | 2930 | 255 |
| NC(=O)c1ccc(S(=O)(=O)N2CCC(n3c(C4CC4)nc4ccc(C(c5ccc(Cl)cc5)c5ccc(Cl)cc5)cc43)CC2)cc1C(F)(F)F [Example 184] | > 10000 | 31.4 |
| CNC(=O)c1cccc(S(=O)(=O)N2CCC(n3c(C4CC4)nc4ccc(C(c5ccc(Cl)cc5)c5ccc(Cl)cc5)cc43)CC2)c1 [Example 186] | > 10000 | 25.3 |
| COc1ccc(S(=O)(=O)N2CCC(n3c(C4CC4)nc4ccc(C(c5ccc(Cl)cc5)c5ccc(Cl)cc5)cc43)CC2)cc1C(N)=O [Example 187] | > 10000 | 51.8 |
| O=C(NCCCO)c1cccc(S(=O)(=O)N2CCC(n3c(C4CC4)nc4ccc(C(c5ccc(Cl)cc5)c5ccc(Cl)cc5)cc43)CC2)c1 [Example 191] | > 10000 | 21 |
| COc1cc(S(=O)(=O)N2CCC(n3c(C4CC4)nc4ccc(C(CO)(c5ccc(Cl)cc5)c5ccc(Cl)cc5)cc43)CC2)ccc1C(N)=O [Example 192] | > 10000 | 5050 |
| COc1cc(S(=O)(=O)N2CCC(n3c(C4CC4)nc4ccc(C(CO)(c5ccc(Cl)cc5)c5ccc(Cl)cc5)cc43)CC2)ccc1C(=O)O [Example 193] | > 10000 | > 10000 |
| O=C(c1c[nH]nn1)N1CCC(n2c(C3CC3)nc3ccc(C(c4ccccc4)c4ccccc4)cc32)CC1 [Example 198] | > 10000 | 4800 |
| O=C(c1nc[nH]n1)N1CCC(n2c(C3CC3)nc3ccc(C(c4ccc(Cl)cc4)c4ccc(Cl)cc4)cc32)CC1 [Example 201] | 990 | 63.8 |
| COC(=O)CCNC(=O)c1cccc(S(=O)(=O)N2CCC(n3c(C4CC4)nc4ccc(C(c5ccc(Cl)cc5)c5ccc(Cl)cc5)cc43)CC2)c1 [Example 203] | > 10000 | 32.4 |

The next lines start with the values.

| EC50 [1] [nM] | EC50 [2] [nM] | Compound |
| --- | --- | --- |
| > 10000 | 67.5 | COCC(c1ccc(Cl)cc1)(c1ccc(Cl)cc1)c1ccc2nc(C3CC3)n(C3CCN(S(=O)(=O)c4ccc(C(=O)O)c(Cl)c4)CC3)c2c1 [Example 178] |
| > 10000 | 1.7 | COc1ccc(-n2c(C3CC3)nc3ccc(C(c4ccc(Cl)cc4)c4ccc(Cl)cc4)cc32)cc1 [Example 179] |
| 6300 | 31.4 | Oc1ccc(Cn2c(C3CC3)nc3ccc(C(c4ccc(Cl)cc4)c4ccc(Cl)cc4)cc32)cc1 [Example 183] |
| > 10000 | 160 | Cc1ccc(S(=O)(=O)N2CCC(n3c(C4CC4)nc4ccc(C(c5ccc(Cl)cc5)c5ccc(Cl)cc5)cc43)CC2)cc1C(=O)O [Example 188] |
| > 10000 | 29.5 | NC(=O)c1ccc(S(=O)(=O)N2CCC(n3c(C4CC4)nc4ccc(C(c5ccc(Cl)cc5)c5ccc(Cl)cc5)cc43)CC2)cc1F [Example 189] |
| 699 | 11.3 | O=C(O)c1ccc(S(=O)(=O)N2CCC(n3c(C4CC4)nc4ccc(C(c5ccc(Cl)cc5)c5ccc(Cl)cc5)cc43)CC2)cc1F [Example 190] |
| 6500 | 173 | O=C(c1cn[nH]n1)N1CCC(n2c(C3CC3)nc3ccc(C(c4ccc(Cl)cc4)c4ccc(Cl)cc4)cc32)CC1 [Example 199] |
| 6310 | 4720 | O=C(c1nc[nH]n1)N1CCC(n2c(C3CC3)nc3ccc(C(c4ccccc4)c4ccccc4)cc32)CC1 [Example 200] |
| > 10000 | 31.2 | O=S(=O)(N1CCC(n2c(C3CC3)nc3c(O)cc(C(c4ccc(Cl)cc4)c4ccc(Cl)cc4)cc32)CC1)C(F)(F)F [Example 202] |
